From US6355799B1, “Substituted benzene compounds, process for their preparation, and herbicidal and defoliant compositions containing them” (ISK Americas Incorporated, priority 1997, dated 2002)

Key:
Assay type in all cases: in vivo
[1] = system: upland rice (Oryza sp., var. Tebonnet, RICE); experiment: Pre-emerge test, crop safety; conditions: crop damage rating 0-100, 14 days after application
Procedure, shortened: (§1)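 Applied at 15–1000 g ai/ha from acetone in 187 l/ha spray volume. Post-emergence applications included 0.25% v/v non-ionic surfactant and reached plants sown 8–21 days before. Pre-emergence applications were incorporated by surface watering. Efficacy or crop damage was rated on a 0–100 scale after 14 days.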

[2] = system: field corn (Zea mays L., var. Dekalb 535, CORN); experiment: Pre-emerge test, crop safety; conditions: crop damage rating 0-100, 14 days after application
Procedure, shortened: as §1

[3] = system: redroot pigweed (Amaranthus retroflexus, AMARE); experiment: Pre-emerge test, greenhouse herbicide activity screening; conditions: phytotoxicity rating 0-100, 14 days after application
Procedure, shortened: (§2)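 Herbicidal damage is scored 0 (none) to 100 (complete plant death) two weeks after a simulated field spray. Rates span 15–1000 g ai/ha, delivered in acetone at 187 l/ha. For post-emergence treatments, plants have 2–3 leaves and the spray carries 0.25% v/v non-ionic surfactant.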

[4] = system: large crabgrass (Digitaria sanguinalis, DIGSA); experiment: as above; conditions: phytotoxicity rating 0-100, 14 days after application
Procedure, shortened: as §2

[5] = system: ivyleaf morningglory (Ipomoea hederacea, IPOHE); experiment: as above; conditions: phytotoxicity rating 0-100, 14 days after application
Procedure, shortened: as §2

[6] = system: velvetleaf (Abutilon theophrasti, ABUTH); experiment: as above; conditions: phytotoxicity rating 0-100, 14 days after application
Procedure, shortened: as §2

[7] = system: lambsquarters (Chenopodium album, CHEAL); experiment: as above; conditions: phytotoxicity rating 0-100, 14 days after application
Procedure, shortened: as §2

[8] = system: green foxtail (Setaria viridis, SETVI); experiment: as above; conditions: phytotoxicity rating 0-100, 14 days after application
Procedure, shortened: as §2

[9] = system: barnyardgrass (Echinochloa crus-galli, ECHCG); experiment: as above; conditions: phytotoxicity rating 0-100, 14 days after application
Procedure, shortened: as §2

[10] = system: sicklepod (Cassia obtusifolia, CASOB); experiment: as above; conditions: phytotoxicity rating 0-100, 14 days after application
Procedure, shortened: as §2

[11] = system: upland rice (Oryza sp., var. Tebonnet, RICE); experiment: Post-emerge test, crop safety; conditions: post-emerge, 14 days after application, rating scale 0-100
Procedure, shortened: as §2

[12] = system: field corn (Zea mays L., var. Dekalb 535, CORN); experiment: Post-emerge test, crop safety; conditions: post-emerge, 14 days after application, rating scale 0-100
Procedure, shortened: as §2

[13] = system: johnsongrass (Sorghum halepense, SORHA); experiment: Post-emerge test, greenhouse herbicide activity screening; conditions: post-emerge, 14 days after application, rating scale 0-100
Procedure, shortened: (§3)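 Sandy loam pots; pre-emerge: sown 1 d pre-spray, surface-watered after, then bottom-watered. Post-emerge: sown 8–21 d before, 2–3 leaf stage, + 0.25% v/v NIS, bottom-watered. Acetone, 187 l/ha track spray, 15–1000 g ai/ha. 0–100 injury score, day 14.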

[14] = system: large crabgrass (Digitaria sanguinalis, DIGSA); experiment: as above; conditions: post-emerge, 14 days after application, rating scale 0-100
Procedure, shortened: as §3

[15] = system: ivyleaf morningglory (Ipomoea hederacea, IPOHE); experiment: as above; conditions: post-emerge, 14 days after application, rating scale 0-100
Procedure, shortened: as §3

[16] = system: velvetleaf (Abutilon theophrasti, ABUTH); experiment: as above; conditions: post-emerge, 14 days after application, rating scale 0-100
Procedure, shortened: as §3

[17] = system: lambsquarters (Chenopodium album, CHEAL); experiment: as above; conditions: post-emerge, 14 days after application, rating scale 0-100
Procedure, shortened: as §3

[18] = system: redroot pigweed (Amaranthus retroflexus, AMARE); experiment: as above; conditions: post-emerge, 14 days after application
Procedure, shortened: as §3

[19] = system: green foxtail (Setaria viridis, SETVI); experiment: as above; conditions: post-emerge, 14 days after application, rating scale 0-100
Procedure, shortened: as §3

[20] = system: barnyardgrass (Echinochloa crus-galli, ECHCG); experiment: as above; conditions: post-emerge, 14 days after application, rating scale 0-100
Procedure, shortened: as §3

[21] = system: sicklepod (Cassia obtusifolia, CASOB); experiment: as above; conditions: post-emerge, 14 days after application, rating scale 0-100
Procedure, shortened: as §3

[22] = 63 g ai/ha, rating scale 0-100 (0 no damage, 100 complete death)
[23] = 250 g ai/ha, rating scale 0-100

COc1c(Cl)cc(F)c(-n2c(=O)cc(C(F)(F)F)n(C)c2=O)c1NC(=O)OCc1ccccn1 [4-36]
20: phytotoxicity rating ECHCG ([20]; 63 g ai/ha)
90: Pre-emerge Herbicidal Activity CORN ([2]; 63 g ai/ha) | Pre-emerge Herbicidal Activity AMARE ([3]; 63 g ai/ha) | Pre-emerge Herbicidal Activity ECHCG ([9]; 250 g ai/ha) | phytotoxicity rating SORHA ([13]; 250 g ai/ha) | phytotoxicity rating SETVI ([19]; 63 g ai/ha) | phytotoxicity rating SETVI ([19]; 250 g ai/ha)
10: phytotoxicity rating SORHA ([13]; 63 g ai/ha)
30: Pre-emerge Herbicidal Activity DIGSA ([4]; 63 g ai/ha) | Pre-emerge Herbicidal Activity ECHCG ([9]; 63 g ai/ha) | phytotoxicity rating DIGSA ([14]; 63 g ai/ha)
95: Pre-emerge Herbicidal Activity RICE ([1]; 250 g ai/ha)
70: phytotoxicity rating DIGSA ([14]; 250 g ai/ha)
100: Pre-emerge Herbicidal Activity CORN ([2]; 250 g ai/ha) | Pre-emerge Herbicidal Activity AMARE ([3]; 250 g ai/ha) | Pre-emerge Herbicidal Activity DIGSA ([4]; 250 g ai/ha) | Pre-emerge Herbicidal Activity IPOHE ([5]; 63 g ai/ha) | Pre-emerge Herbicidal Activity IPOHE ([5]; 250 g ai/ha) | Pre-emerge Herbicidal Activity ABUTH ([6]; 63 g ai/ha) | Pre-emerge Herbicidal Activity ABUTH ([6]; 250 g ai/ha) | Pre-emerge Herbicidal Activity CHEAL ([7]; 63 g ai/ha) | Pre-emerge Herbicidal Activity CHEAL ([7]; 250 g ai/ha) | Pre-emerge Herbicidal Activity SETVI ([8]; 250 g ai/ha) | Pre-emerge Herbicidal Activity CASOB ([10]; 250 g ai/ha) | phytotoxicity rating RICE (crop damage) ([11]; 250 g ai/ha) | phytotoxicity rating CORN (crop damage) ([12]; 250 g ai/ha) | phytotoxicity rating IPOHE ([15]; 63 g ai/ha) | phytotoxicity rating IPOHE ([15]; 250 g ai/ha) | phytotoxicity rating ABUTH ([16]; 63 g ai/ha) | phytotoxicity rating ABUTH ([16]; 250 g ai/ha) | phytotoxicity rating CHEAL ([17]; 63 g ai/ha) | phytotoxicity rating CHEAL ([17]; 250 g ai/ha) | phytotoxicity rating AMARE [18, 22] | phytotoxicity rating AMARE [18, 23] | phytotoxicity rating CASOB ([21]; 63 g ai/ha) | phytotoxicity rating CASOB ([21]; 250 g ai/ha)
60: Pre-emerge Herbicidal Activity RICE ([1]; 63 g ai/ha) | Pre-emerge Herbicidal Activity SETVI ([8]; 63 g ai/ha) | phytotoxicity rating RICE (crop damage) ([11]; 63 g ai/ha) | phytotoxicity rating ECHCG ([20]; 250 g ai/ha)
80: Pre-emerge Herbicidal Activity CASOB ([10]; 63 g ai/ha)
50: phytotoxicity rating CORN (crop damage) ([12]; 63 g ai/ha)

COc1c(Cl)cc(F)c(-n2c(=O)cc(C(F)(F)F)n(C)c2=O)c1NC(=O)OCc1cc(C)cc(C)c1 [4-37]
90: Pre-emerge Herbicidal Activity DIGSA ([4]; 250 g ai/ha) | Pre-emerge Herbicidal Activity ABUTH ([6]; 250 g ai/ha) | Pre-emerge Herbicidal Activity SETVI ([8]; 63 g ai/ha) | phytotoxicity rating SETVI ([19]; 63 g ai/ha) | phytotoxicity rating SETVI ([19]; 250 g ai/ha) | phytotoxicity rating CASOB ([21]; 63 g ai/ha)
10: Pre-emerge Herbicidal Activity RICE ([1]; 63 g ai/ha) | Pre-emerge Herbicidal Activity ECHCG ([9]; 63 g ai/ha) | phytotoxicity rating RICE (crop damage) ([11]; 63 g ai/ha)
20: phytotoxicity rating CORN (crop damage) ([12]; 63 g ai/ha) | phytotoxicity rating ECHCG ([20]; 63 g ai/ha)
60: Pre-emerge Herbicidal Activity DIGSA ([4]; 63 g ai/ha) | Pre-emerge Herbicidal Activity ECHCG ([9]; 250 g ai/ha) | phytotoxicity rating RICE (crop damage) ([11]; 250 g ai/ha) | phytotoxicity rating CORN (crop damage) ([12]; 250 g ai/ha) | phytotoxicity rating SORHA ([13]; 250 g ai/ha) | phytotoxicity rating ECHCG ([20]; 250 g ai/ha)
50: Pre-emerge Herbicidal Activity IPOHE ([5]; 250 g ai/ha) | phytotoxicity rating DIGSA ([14]; 63 g ai/ha)
30: Pre-emerge Herbicidal Activity RICE ([1]; 250 g ai/ha) | Pre-emerge Herbicidal Activity IPOHE ([5]; 63 g ai/ha) | Pre-emerge Herbicidal Activity CASOB ([10]; 63 g ai/ha)
40: Pre-emerge Herbicidal Activity CASOB ([10]; 250 g ai/ha) | phytotoxicity rating SORHA ([13]; 63 g ai/ha)
70: phytotoxicity rating DIGSA ([14]; 250 g ai/ha)
0: Pre-emerge Herbicidal Activity CORN ([2]; 63 g ai/ha) | Pre-emerge Herbicidal Activity CORN ([2]; 250 g ai/ha)
100: Pre-emerge Herbicidal Activity AMARE ([3]; 63 g ai/ha) | Pre-emerge Herbicidal Activity AMARE ([3]; 250 g ai/ha) | Pre-emerge Herbicidal Activity ABUTH ([6]; 63 g ai/ha) | Pre-emerge Herbicidal Activity CHEAL ([7]; 63 g ai/ha) | Pre-emerge Herbicidal Activity CHEAL ([7]; 250 g ai/ha) | Pre-emerge Herbicidal Activity SETVI ([8]; 250 g ai/ha) | phytotoxicity rating IPOHE ([15]; 63 g ai/ha) | phytotoxicity rating IPOHE ([15]; 250 g ai/ha) | phytotoxicity rating ABUTH ([16]; 63 g ai/ha) | phytotoxicity rating ABUTH ([16]; 250 g ai/ha) | phytotoxicity rating CHEAL ([17]; 63 g ai/ha) | phytotoxicity rating CHEAL ([17]; 250 g ai/ha) | phytotoxicity rating AMARE [18, 22] | phytotoxicity rating AMARE [18, 23] | phytotoxicity rating CASOB ([21]; 250 g ai/ha)
